This is an account of results in patent US4006238A, “Use of 2-(hydroxyalkyl)-1H-benz[de]isoquinoline-1,3(2H)-diones as anti-allergy agents” (E. R. Squibb & Sons, Inc., priority 1975, dated 1977).

Structures are written as SMILES.

This test relates to reaginic antibody induced passive cutaneous anaphylaxis (PCA) reaction. Briefly: reaginic antibody induced passive cutaneous anaphylaxis (PCA) reaction in rats. Conditions: male rat; anti-Egg Albumin intradermal; two doses of test compound (75 mg./kg.) intraperitoneally, 90 and 10 minutes prior to intravenous Egg Albumin/Evans Blue challenge; scored thirty minutes after. It counts as in vivo. How it is done: The compounds of formula I are anti-allergics which inhibit the effects of certain antigen-antibody reactions and in particular inhibit the release of mediators such as histamine. The anti-allergy activity of these compounds is determined by the reaginic antibody induced passive cutaneous anaphylaxis (PCA) reaction in rats. (See Bach, Immediate Hypersensitivity: Laboratory Models and Experimental Findings, Ann. Rep. Med. Chem., 7: 238-248 (1972), for a discussion of the predictability of clinical efficacy of compounds active in the PCA).
The experimental procedure employed is as follows. A male rat is given an intradermal injection on one flank of 0.05 ml. of antibody (reaginic) (anti-Egg Albumin). 24 hours later two doses of test compound (75 mg./kg.) are administered intraperitoneally, one dose ninety minutes and the other ten minutes prior to a 0.5 ml. intravenous injection of an antigen challenge (equal portions of Egg Albumin 4 mg./ml. and 1% Evans Blue Dye). […] A score is obtained according to the formula
Total score = (diameter) × (intensity)
wherein the intensity of the spot is rated on a scale of 1 to 3 as follows
and the diameter is determined by averaging in millimeters two measured diameters of the reaction.
The percent inhibition is calculated by comparing the scores obtained in both compound and non-compound treated animals according to a pre-determined standard curve relationship between score and the quantity of antibody used to elicit the reaction.
Take `O=C1c2cccc3cccc(c23)C(=O)N1CCCCCO` [2-(5-Hydroxypentyl)-1H-benz[de]isoquinoline-1,3(2H)-dione]: the “Percent Inhibition” value stood at 8%. On to `O=C1c2cccc3cccc(c23)C(=O)N1CCCCO` [2-(4-Hydroxybutyl)-1H-benz[de]isoquinoline-1,3(2H)-dione], for which the “Percent Inhibition” value is given as 53%. As for `O=C1c2cccc3cccc(c23)C(=O)N1CO` [2-(Hydroxymethyl)-1H-benz[de]isoquinoline-1,3(2H)-dione], the figure is 50%; as for `O=C1c2cccc3cccc(c23)C(=O)N1CCO` [2-(2-Hydroxyethyl)-1H-benz[de]isoquinoline-1,3(2H)-dione], 36%. As for `O=C1c2cccc3cccc(c23)C(=O)N1CCCO` [2-(3-Hydroxypropyl)-1H-benz[de]isoquinoline-1,3(2H)-dione], the figure is 52%.
